Source: DBAASP
In brackets after ≈: the same amount, converted by molar mass. Several values for one entry are separate records, joined by “and”; a condition that tells them apart may be missing. Equal entries are not always repeated. Each block holds one compound with its values, some of them ahead of it.

Key:
Assay in all cases: ≥ marks a high value that may be exact or a test limit, other limits are often not marked, values filed in µg/mL are converted to µM
[1] = system: Lacticaseibacillus rhamnosus 7469
[2] = system: Lacticaseibacillus rhamnosus 1.9205
[3] = system: Staphylococcus aureus ATCC 25923
Escherichia coli 987P = system: Escherichia coli 987P
[4] = system: Staphylococcus epidermidis ATCC 12228
Escherichia coli K88 = system: Escherichia coli K88
Escherichia coli 078 = system: Escherichia coli 078
[5] = system: Staphylococcus aureus ATCC 29213
[6] = system: Lacticaseibacillus rhamnosus 1.0386
[7] = system: Lacticaseibacillus rhamnosus 1.0385
Escherichia coli K99 = system: Escherichia coli K99
Escherichia coli UB1005 = system: Escherichia coli UB1005
[8] = system: Pseudomonas aeruginosa ATCC 27853
[9] = system: Salmonella enterica subsp. enterica serovar Typhimurium C77-31
[10] = system: Lactiplantibacillus plantarum 8014
[11] = system: Lacticaseibacillus rhamnosus 1.0911
[12] = system: Streptococcus agalactiae ATCC 13813
[13] = system: Acinetobacter baumannii BCRC 14B0100
[14] = system: Pseudomonas aeruginosa ATCC 47085
[15] = system: Escherichia coli D31 CGSC 5165
[16] = system: Staphylococcus aureus ATCC 35556
[17] = system: Acinetobacter baumannii ATCC 19606
[18] = system: Staphylococcus epidermidis
[19] = system: Staphylococcus aureus ATCC 6538P
[20] = system: Pseudomonas aeruginosa PAO1
[21] = system: Staphylococcus aureus ATCC BAA-41
Escherichia coli BL21 = system: Escherichia coli BL21
[22] = system: Shigella flexneri CICC 21534
[23] = system: Salmonella typhimurium SL1344
[24] = system: Pasteurella multocida C48-3
[25] = system: Bacillus subtilis CICC 24434
Escherichia coli E44813 = system: Escherichia coli E44813
[26] = system: Staphylococcus epidermidis LY8
[27] = system: Listeria monocytogenes CICC 21533
[28] = system: Salmonella enterica subsp. enterica serovar Choleraesuis C78-1
[29] = system: Escherichia coli NCTC 10418
[30] = system: Staphylococcus aureus NCTC 10788
[31] = system: Enterococcus faecalis NCTC 12697
[32] = system: Candida albicans NCYC 1467
[33] = system: Staphylococcus aureus NCTC 12493
[34] = system: Klebsiella pneumoniae ATCC 43816

MIC [1]: ≥ 128 µM
MIC [2]: ≥ 128 µM
MIC [3]: 8 µM (≈ 15.4 µg/mL)
MIC (Escherichia coli 987P): 2 µM (≈ 3.85 µg/mL)
MIC [4]: 4 µM (≈ 7.71 µg/mL)
MIC (Escherichia coli K88): 8 µM (≈ 15.4 µg/mL)
MIC (Escherichia coli 078): 16 µM (≈ 30.8 µg/mL)
MIC [5]: 4 µM (≈ 7.71 µg/mL)
MIC [6]: ≥ 128 µM
MIC [7]: ≥ 128 µM
MIC (Escherichia coli K99): 4 µM (≈ 7.71 µg/mL)
MIC (Escherichia coli UB1005): 8 µM (≈ 15.4 µg/mL)
MIC [8]: 4 µM (≈ 7.71 µg/mL)
MIC [9]: ≥ 128 µM
MIC [11]: ≥ 128 µM
MIC [12]: 8 µM (≈ 15.4 µg/mL)
SMILES: CC[C@H](C)[C@H](NC(=O)[C@H](CCCCN)NC(=O)[C@@H](NC(=O)[C@@H](N)Cc1c[nH]c2ccccc12)[C@@H](C)CC)C(=O)N[C@@H](Cc1c[nH]c2ccccc12)C(=O)N[C@@H](CCCCN)C(=O)N[C@@H](CCCCN)C(=O)N[C@H](C(=O)N[C@H](C(=O)N[C@@H](CCCCN)C(=O)N[C@@H](CCCCN)C(=O)N[C@@H](Cc1c[nH]c2ccccc12)C(=O)N[C@@H](CCCCN)C(=O)N[C@@H](CCCCN)C(=O)O)[C@@H](C)CC)[C@@H](C)CC [WIKIWKKIIKKWKK]
MIC [10]: ≥ 128 µM

MIC [13]: 0.778 µM and 0.389 µM
SMILES: CC[C@H](C)[C@H](NC(=O)[C@H](CCCN=C(N)N)NC(=O)[C@H](CCC(N)=O)NC(=O)[C@@H](NC(=O)[C@@H](NC(=O)[C@H](CCCN=C(N)N)NC(=O)[C@H](CCCCN)NC(C)=O)[C@@H](C)CC)C(C)C)C(=O)N[C@@H](CCCCN)C(=O)N[C@@H](CC(=O)O)C(=O)N[C@@H](Cc1ccccc1)C(=O)N[C@@H](CC(C)C)C(=O)N[C@@H](CCCN=C(N)N)C(=O)N[C@@H](C)C(=O)NCC(=O)N1CCC[C@H]1C(=O)N[C@H](C(=O)N[C@@H](CCCCN)C(=O)N[C@@H](CC(=O)O)C(=O)N[C@@H](Cc1ccccc1)C(=O)N[C@@H](CC(C)C)C(=O)N[C@@H](CCCN=C(N)N)C(N)=O)[C@@H](C)CC [KRIVQRIKDFLRAGPIKDFLR]

MIC [14]: 15 µM (≈ 41.5 µg/mL)
MIC [15]: 0.94 µM (≈ 2.6 µg/mL)
MIC [16]: 1.88 µM (≈ 5.2 µg/mL)
MIC [17]: 0.94 µM (≈ 2.6 µg/mL)
SMILES: CC[C@H](C)[C@H](NC(=O)[C@H](CCCN=C(N)N)NC(=O)CNC(=O)[C@H](CC(C)C)NC(=O)[C@@H](NC(=O)[C@H](C)NC(=O)[C@H](CCCN=C(N)N)NC(=O)CNC(=O)[C@H](C)NC(=O)CNC(=O)[C@H](CCCN=C(N)N)NC(=O)[C@H](CCSC)NC(=O)[C@H](CCCN=C(N)N)NC(=O)[C@@H](NC(=O)[C@H](Cc1c[nH]c2ccccc12)NC(=O)[C@H](CC(C)C)NC(=O)[C@H](CCC(=O)O)NC(=O)[C@H](CCCN=C(N)N)NC(=O)[C@H](CC(C)C)NC(=O)[C@@H](N)CC(C)C)[C@@H](C)O)C(C)C)C(=O)N[C@@H](CCCN=C(N)N)C(=O)NCC(=O)N[C@@H](CC(C)C)C(=O)N[C@@H](CC(C)C)C(=O)O [LLRELWTRMRGAGRAVLGRIRGLL]

MIC [18]: 0.5 µM (≈ 0.914 µg/mL)
MIC [19]: 1.41 µM (≈ 2.59 µg/mL)
MIC [20]: 1.41 µM (≈ 2.59 µg/mL)
MIC [21]: 4 µM (≈ 7.31 µg/mL)
MIC (Escherichia coli BL21): 0.707 µM (≈ 1.29 µg/mL)
SMILES: CC[C@H](C)[C@H](NC(=O)[C@H](CCCCN)NC(=O)[C@H](CCCCN)NC(=O)[C@H](Cc1ccccc1)NC(=O)[C@H](CC(C)C)NC(=O)[C@H](CCCCN)NC(=O)[C@H](Cc1c[nH]c2ccccc12)NC(=O)[C@@H](N)CCCCN)C(=O)NCC(=O)N[C@@H](CCCCN)C(=O)N[C@H](C(=O)N[C@@H](CC(C)C)C(=O)N[C@@H](CCCCN)C(=O)N[C@H](C(=O)N[C@@H](CC(C)C)C(=O)O)C(C)C)C(C)C [KWKLFKKIGKVLKVL]

MIC [22]: 25.2 µM (≈ 75 µg/mL)
MIC [3]: 0.0084 µM (≈ 0.025 µg/mL)
MIC [23]: 0.524 µM (≈ 1.56 µg/mL)
MIC [24]: 1.05 µM (≈ 3.12 µg/mL)
MIC [25]: 0.524 µM (≈ 1.56 µg/mL)
MIC (Escherichia coli E44813): 4.2 µM (≈ 12.5 µg/mL)
MIC [26]: 8.4 µM (≈ 25 µg/mL)
MIC [27]: ≥ 42 µM
SMILES: CC[C@H](C)[C@H](NC(=O)[C@@H](NC(=O)[C@H](Cc1ccccc1)NC(=O)[C@H](CCCCN)NC(=O)[C@@H]1CCCN1C(=O)[C@H](CCCCN)NC(=O)[C@H](CCC(N)=O)NC(=O)[C@@H]1CCCN1C(=O)[C@H](CCCN=C(N)N)NC(=O)[C@H](CCCN=C(N)N)NC(=O)[C@@H](NC(=O)[C@H](CCCN=C(N)N)NC(=O)[C@H](Cc1c[nH]c2ccccc12)NC(=O)[C@H](CC(C)C)NC(=O)[C@H](CC(C)C)NC(=O)[C@H](CC(=O)O)NC(=O)[C@@H](NC(=O)[C@@H](NC(=O)[C@@H](N)CCCN=C(N)N)[C@@H](C)CC)[C@@H](C)CC)C(C)C)C(C)C)C(=O)N[C@H](C(=O)N[C@@H](Cc1c[nH]c2ccccc12)C(=O)N[C@H](C(=O)N[C@@H](CCCN=C(N)N)C(=O)O)C(C)C)C(C)C [RIIDLLWRVRRPQKPKFVIVWVR]
MIC [28]: 0.262 µM (≈ 0.78 µg/mL)

MIC [29]: 16 µM (≈ 30.4 µg/mL)
MIC [30]: 8 µM (≈ 15.2 µg/mL)
MIC [31]: ≥ 256 µM
MIC [8]: 64 µM (≈ 121 µg/mL)
MIC [32]: 8 µM (≈ 15.2 µg/mL)
MIC [33]: 8 µM (≈ 15.2 µg/mL)
MIC [34]: ≥ 32 µM
SMILES: CC[C@H](C)[C@@H]1NC(=O)[C@H](C)NC(=O)[C@@H](NC(=O)[C@H](Cc2ccccc2)NC(=O)[C@@H](NC(=O)[C@H](CCCCN)NC(=O)[C@H](Cc2c[nH]c3ccccc23)NC(=O)[C@@H]2CCCN2C(=O)[C@H](Cc2c[nH]c3ccccc23)NC(=O)[C@H](Cc2ccccc2)NC(=O)[C@@H](N)CCCCN)[C@@H](C)CC)CSSC[C@@H](C(=O)O)NC(=O)[C@H](CCCCN)NC(=O)[C@H](CCCCN)NC(=O)[C@H]([C@@H](C)O)NC1=O [KFWPWKIFCAITKKC]
